Experimental data taken from patent EP0703239A1, “Aminomethylphosphonic and aminomethylphosphinic acids derivatives and their use in the treatment of degenerative articular diseases” (priority 1994, dated 1996).

Experiments:
[1] = system: Matrix Metalloproteasen (MMP); test: Inhibition of matrix metalloproteases from supernatant of PMA-induced synoviocytes, fluorogenic substrate; assay type: biochemical, Kaninchen
Excerpt: 3. Inhibierung von Matrix Metalloproteasen (MMP)
Die erfindungsgemäßen Verbindungen zeigten deutliche inhibitorische Wirkungen auf proteolytische Enzyme, die sogenannten Matrix Metalloproteasen. Dies ist von großer Bedeutung, weil diese dem Fachmann an sich bekannten Enzyme am proteolytischen Abbau der intakten Knorpelmatrix entscheidend beteiligt sind.
Kaninchen Synoviocyten (HIG-82; ATCC, Rockville, Maryland, USA) werden in Nährmedium HAM'S F12 (Sigma, Deisenhofen, Deutschland, Katalog Nr. N-6760) mit 10 % fötalem Rinder Serum (Sigma, Deisenhofen, Deutschland, Katalog Nr. F-2442), zusammen mit Penicillin 100 U/ml sowie Streptomycin 100 µg/ml, kultiviert. Nach konfluentem Zellwachstum wird die MMP Expression in serumfreiem HAM'S F12 durch Zugabe von 0,3 µmol/l Phorbol-12-Myristat-13-Acetat induziert. Nach 20 h Inkubationszeit bei 37°C wird der Überstand abgenommen.
Der Überstand wird mit Trypsin (5 µg/ml) aktiviert. Nach 15 Minuten (min) bei 37°C wird die Aktivierung durch Zugabe von 1 mmol/l Phenylmethylsulfonylfluorid (PMSF) beendet und für weitere 10 min nachinkubiert. Das Gesamtvolumen des Ansatzes beträgt 210 µl.
Messung der MMP Aktivität (Lit.: C.G. Knight et al.; FEBS Lett. 296, 263 (1992)):
20 µl des obengenannten Überstandes werden 1:10 verdünnt, und mit 240 µl Puffer (0,1 Tris/HCl pH 7,5; 0,1 M NaCl; 0,01 M CaCl₂; 0,05 % Brij) gemischt. Die Prüfsubstanz wird in der angegebenen Konzentration (s. Tabelle) zugegeben. Nach einer Inkubationszeit von 15 min wird die Reaktion durch Zugabe von 20 µmol/l Fluoreszenz-Substanz ((7-Methoxycoumarin-4-yl)acetyl-pro-Leu-Gly-Leu-[3-(2',4'-dinitrophenyl)-L-2,3-diaminopropionyl]-Ala-Arg-NH₂; Bachem, Heidelberg, Deutschland, Kat. Nr.: M-1895) gestartet. Die Reaktion wird nach 30 min durch Zugabe von 10 mmol/l EDTA beendet. Das Gesamtvolumen des Ansatzes beträgt 320 µl. Als Meßparameter dienen die Fluoreszenzintensitäten bei λex: 328 nm und […]. Um die mögliche Eigenfluoreszens der Prüfsubstanzen zu berücksichtigen, werden die Fluoreszenzintensitäten von Parallel-Messungen ohne Substrat von den Messwerten mit Substrat abgezogen. Alle Operationen erfolgen bei 20°C. Im Kontrollexperiment ohne Hemmstoff wird die Fluoreszenz entsprechen 0 % Hemmung gesetzt, während völlige Auslöschung der Fluoreszenz 100 % Hemmung bedeutet.

IL-1alpha = test: LPS-stimulated interleukin release from human mononuclear cells, ELISA (IL-1alpha); assay type: cell-based; details: 10 µmol/l, 20-22 h, read-out: % Hemmung der Interleukin-Freisetzung
Description: (§1) 5. Freisetzung von Interleukinen (insbesondere IL-1β) aus humanen mononuklearen Zellen
(§2) Die erfindungsgemäßen Verbindungen haben eine starke Hemmwirkung auf die Freisetzung von Interleukinen aus Humanzellen. Dies ist von großer pharmakologischer Bedeutung weil Interleukine die unerwünschte Degradation der Knorpelmatrix auslösen können.
(§3) 10 ml Humanblut, stabilisiert mit 1 ml 3,8 %iger Natriumcitrat-Lösung, werden mit 10 ml PM16 (Serva, Heidelberg) verdünnt und mit 15 ml Lymphoprep (Dr. Molter GmbH, Heidelberg) unterschichtet. Die Proben werden 40 Minuten bei 400 xg (1600 rpm Minifuge 2, Heraeus, Osterode) zentrifugiert (Raumtemperatur). Die mononuklearen Zellen sind als weißer Ring an der Grenze Lymphoprep/Plasma sichtbar. Dieser Ring wird mit einer Spritze vorsichtig entnommen, mit dem gleichen Volumen PM16 verdünnt und 10 Minuten bei 400 xg zentrifugiert. Der Niederschlag wird mit ∼ 10 ml RPMI 1640 (+ 300 mg/l L-Glutamin, Gibco, Eggenstein) gewaschen. Nach Resuspendieren der Zellen in ∼ 1 ml RPMI 1640 (+ 300 mg/l L-Glutamin, + 25 mM HEPES, + 100 µg/ml Streptomycin, + 100 µg/ml Penicillin) wird die Zelldichte mit einem Coulter Counter JT (Coulter Diagnostics) bestimmt und auf 5 * 10⁶/ml eingestellt. Die Zellen bestehen typischerweise aus 90 % Lymphozyten und 10 % Monozyten.
(§4) 230 µl mononukleare Zellen werden mit 10 µl Testsubstanz (10 µM in DMSO/Wasser 1/10) und 10 µl Lipopolysaccharide (500 µg gelöst in 1 ml Dimethylsulfoxid (DMSO) und vor Testbeginn 1/10 mit Wasser verdünnt, von Salmonella abortus equi, Sigma, Deisenhofen) 20-22 Stunden bei 37°C; 5 % CO₂ inkubiert. Die Proben werden in einem Eisbad auf 0°C abgekühlt und in einer Sigma-Zentrifuge zentrifugiert (2 Minuten; 2000 rpm). Aliquote des Überstandes werden mit einem kommerziell erhältlichen ELISA (Biermann, Bad Nauheim) bestimmt.

Rattenlebermikrosomen = test: Inhibition of microsomal lipid peroxidation (malondialdehyde/thiobarbituric acid); assay type: biochemical, Ratte; details: rat liver microsomes, FeSO₄ start, 10 min 37°C; read-out: IC50 Mikrosomale Lipidperoxidation
Description: 4. Hemmung der Mikrosomalen Lipidperoxidation […]
Alle Schritte werden bei 0°C durchgeführt. Die Leber einer Ratte wird, um alles Hämoglobin zu entfernen, mit 0,9 % NaCl-Lösung gründlich gespült. Die grob zerkleinerte Leber wird dann in 10 mM Tris/HCl pH 7,4; 250 mM Saccharose (10 ml Puffer/g Leber) gepottert. Zunächst wird 5 Minuten bei 600xg zentrifugiert. Der Überstand wird dann 10 min bei 12000xg zentrifugiert und wird mit festem CaCl₂ (117,6 mg/100 ml) auf eine Konzentration von 8 mM eingestellt. Durch Zentrifugieren bei 25000 xg (15 min) wird ein Mikrosomenniederschlag gewonnen. Dieser Niederschlag wird im gleichen Volumen Puffer (10 mM Tris/HCl pH 7,4; 150 mM KCl) rehomogenisiert und erneut 15 min bei 25000 xg zentrifugiert.
Ein Testansatz besteht aus 20 µl Mikrosomen (100 mg/ml), vgl. oben, gelöst in Puffer (250 mM Tris/HCl pH 6,6, 750 mM KCl), 10 µl 50 mM MgCl₂, 10 µl 200 mM Isocitronensäure, 10 µl 4mM NADP (3,028 mg/ml Wasser), 10 µl 25 mM Niacinamid, 10 µl Isocitratdehydrogenase (1:100 verdünnt) und 20 µl Wasser oder Testsubstanz. Gestartet wird die Reaktion mit 10 µl 0,25 mM FeSO₄. Die Inkubation dauert 10 Minuten und erfolgt bei 37°C. Gestoppt wird mit 500 µl eiskalter 20 %iger Trichloressigsäure. Entstandenes Malondialdehyd wird durch Zugabe von 500 µl 0,67 %iger Thiobarbitursäure und 30 Minuten Inkubation bei 90°C in eine pinkfarbene Verbindung überführt, die bei 532 nm gemessen wird. Die Extinktion im Kontrollansatz ohne Prüfpräparat wird auf 0 % Hemmung gesetzt, während das völlige Verschwinden des Signals 100 % Hemmung bedeutet.

TNF-alpha = test: LPS-stimulated interleukin release from human mononuclear cells, ELISA (TNF-alpha); assay type: cell-based; details: 10 µmol/l, 20-22 h, read-out: % Hemmung der Interleukin-Freisetzung
Description: as §1, §2, §3, §4

Chondrozyten = test: Stimulation of cartilage matrix (proteoglycan) synthesis in chondrocyte agarose culture, 35S-sulfate incorporation; assay type: cell-based, Rinder; details: Chondrocyte, read-out: Stimulationsfaktor der Proteoglykansynthese
Excerpt: 1. Wirksamkeit in der Synthese-Stimulierung von Knorpel-Matrix, Prüfung in der Chondrozyten-Kultur
Zellen: Den Fußgelenken frisch geschlachteter Rinder werden der hyaline Knorpel entnommen, mit Pronase (Boehringer Mannheim) und Collagenase (Sigma), die native Matrix enzymatisch abgebaut, und die Chondrozyten in 1 %iger "low melting Agarose" in 24er Multiwell-Schalen in einer Zelldichte von 4 x 10⁶ pro well ausplattiert.
Medium: Komplettes Medium enthält HAM's F12 (Biochrom KG, Berlin) und 10 % foetales Kälberserum (Boehringer Mannheim), die Testsubstanz wird in Medium gelöst, üblicherweise in einer Konzentration von 10⁻⁵ M zugegeben und bei jedem Mediumwechsel erneut zugefügt.
Versuchsdurchführung: Die Behandlung erfolgt vom dritten bis zehnten Tag der Primärkultur, am 9. […] Die dissoziative Extraktion der Proteoglykane aus der Agarose-Schicht wird mit 8M Guanidinium-Hydrochlorid und beigefügten Proteinase-Inhibitoren (Sigma) unter Schütteln bei 4° C über 24 h durchgeführt. Der Überstand wird nach Zentrifugation über eine PD 10 ®Sephadex G 25 Säule in freies und inkorporiertes Sulfat getrennt, dessen Aktivität nach Aliquotierung im β-Szintillationscounter gemessen wird.
Auswertung: Der Parameter für die Matrixproduktion der Chondrozyten ist die Menge synthetisierter Proteoglykane, gemessen als Sulfatinkorporation in cpm. Aus vier Wells pro Gruppe wird der Mittelwert errechnet. Dieser wird durch den Mittelwert der unbehandelten Kontrolle dividiert, und ergibt somit einen Stimulationsfaktor, der bei Stimulation der Matrixsynthese größer 1 ist, bei Hemmung derselben durch Substanzwirkung kleiner 1, und bei unveränderter Matrixsynthese gleich 1 ist.
Als Standard wird Diacerein eingesetzt, das unter dem Markennamen "Artodar" von der Firma Proter bzw. […] Tabelle II

SMILES | Hemmung der MMP ([1]; 30 µM) [%] | Hemmung der MMP ([1]; 100 µM) [%] | inhibition at 10 µM (IL-1alpha) [%] | IC50 (Rattenlebermikrosomen) [µM] | inhibition at 10 µM (TNF-alpha) [%] | fold induction at 10 µM (Chondrozyten)
CCOP(=O)(OCC)C(c1cc(C(C)(C)C)c(O)c(C(C)(C)C)c1)N1CCCCC1 (stereo not drawn) [Beispiel 22] | 12 | 34 | 80 | 2.45 | 86 | 1.2
CCOP(=O)(OCC)C(c1cc(C(C)(C)C)c(O)c(C(C)(C)C)c1)N1CCN(c2ccccc2)CC1 (stereo not drawn) [Beispiel 25] |  |  | 60 | 2.45 | 36 | 
